Measured values as given in patent US11834517B2, “Branched peptides for enzymatic assembly and mitochondria drug delivery” (BRANDEIS UNIVERSITY, priority 2017, dated 2023).
Peptide text beside a SMILES is read from it. * marks the point of attachment. X2 = O=C(Cc1ccc2ccccc2c1)N[C@H](Cc1ccccc1)C(=O)N[C@H](Cc1ccccc1)C(=O)N[C@H](CCCCN*)C(=O)NCCNc1ccc([N+](=O)[O-])c2nonc12; X3 = O=C(Cc1ccc2ccccc2c1)N[C@@H](Cc1ccccc1)C(=O)N[C@@H](Cc1ccccc1)C(=O)N[C@@H](CCCCN*)C(=O)N[C@@H](Cc1ccc(O)cc1)C(=O)O; X1 = O=C(Cc1ccc2ccccc2c1)N[C@H](Cc1ccccc1)C(=O)N[C@H](Cc1ccccc1)C(=O)N[C@H](CCCCN*)C(=O)N[C@H](Cc1ccc(O)cc1)C(=O)O

Legend:
HeLa cells [1] = test: Cell viability / cytotoxicity (MTT) assay, HeLa; assay type: cell-based
HS-5 cells = test: Cell viability after GFP-TP53 plasmid transfection, HS-5; assay type: cell-based, human; details: HS-5, GFP-TP53 plasmid (5 μg/mL) mixed with Mito-Flag (200 μM), 3rd day
Experimental: (§1) FIGS. 24A-G show how perimitochondrial ENS causes mitochondrial transgene expression to induce mitophagy or apoptosis. FIG. 24A is a Western blot analysis of FUNDC1 and LC3B levels in the mitochondria fraction and cytosolic fraction, respectively, of HeLa cells incubated with conditions of interest. VDAC1 serves as mitochondria protein loading control. FUNDC1 plasmid: 5 μg/mL, Mito-Flag: 200 μM, Time: 2 days. FIG. 24B is a panel of fluorescent images showing that Mito-Flag perimitochondrial ENS delivering FUNDC1 gene into mitochondria to induce mitochondrial morphology changes within 2 days. FIG. 24C is a panel of fluorescent images showing that the detection of mitophagy via immunofluorescent staining of autophagy marker, LC3 (2nd day). FIG. 24D is a panel of fluorescent images of HeLa cells incubated with free GFP-TP53 plasmid and the plasmid mixed with Mito-Flag (200 μM, 24 h). FIG. 24E is a graph illustrating cell viability of HeLa, Saos-2, and HS-5 cells incubated with free GFP-TP53 plasmid (5 μg/mL), Mito-Flag (200 μM), and the plasmid (5 μg/mL) mixed with Mito-Flag (200 μM, 3rd day). Data are presented as mean±standard deviation. FIG. 24F is a panel of fluorescent images showing an apoptosis analysis on HeLa and HS-5 cells. […]

Saos-2 cell = test: Cell viability after GFP-TP53 plasmid transfection, Saos-2; assay type: cell-based, human; details: Saos-2, single agent: free GFP-TP53 plasmid or Mito-Flag
Experimental: as §1

HeLa cells [2] = test: Cell viability after GFP-TP53 plasmid transfection, HeLa; assay type: cell-based, human; details: single agent: free GFP-TP53 plasmid (5 μg/mL) or Mito-Flag (200 μM), 3rd day
Experimental: as §1

HeLa cells [3] = test: Uptake and mitochondrial localization of NBD-Mito-Flag in HeLa cells in the presence of inhibitors; assay type: cell-based, human; details: NBD-Mito-Flag 200 μM; for mitochondrial localization of NBD-Mito-Flag: HeLa, with inhibitor (chloroquine 10 μM; erastin; Ndz 10 μM, 1 h pretreatment; FCCP pretreatment); for uptake of NBD-Mito-Flag (intracellular fluorescence): 2 h, with endocytosis inhibitor (CPZ 5 μM)
Experimental: FIG. 26B is a panel of confocal fluorescence images of HeLa cells incubated with NBD-Mito-Flag (200 μM) and chloroquine (10 μM). […] FIG. 26D is a panel of TEM images of mitochondria isolated from HeLa, HEK293 and HS-5 cells incubated with 200 μM Mito-Flag for 24 h. […] FIG. 26E and FIG. 26F are fluorescent images of NBD-Mito-Flag and RFP-LAMP1 in ENTK-knockdown HeLa cells. […] FIG. 26G-H are fluorescent images of the HeLa cells incubated with NBD-Mito-Flag (200 μM, 2 h) (FIG. 26G) or the mixture of virus (RFP-LAMP1) and Mito-Flag (200 μM, 24 h) (FIG. 26H) in the presence of erastin of different concentrations. […] FIG. 26I is a panel of fluorescent images of HeLa cells incubated with NBD-Mito-Flag (200 μM, 2 h) after the pretreatment by Ndz (10 μM, 1 h).
Intracellular Fluorescence Quantification: Cells were seeded in petri dishes and incubated in standard condition for 12 h before experiment. After being treated by the condition of interest, all cells were washed by PBS (3 time for 5 min). After the washing step, cells were detached from the dishes using trypsin. The trypsin was removed by centrifuge and washing with PBS. The cell suspensions (in PBS) were diluted to 10^5 cell/mL. 100 μL diluted cell suspension was added in a 96-well plate (at least 5 wells per sample). The intracellular fluorescence intensity was immediately determined using a DTX 880 Multimode Detector (Beckman Coulter Inc.). The experiments were repeated, and the intracellular fluorescence intensity was averaged (n>3).

MT-CO1-KO cancer cells = test: Sensitivity of MT-CO1-KO cancer cells to chemotherapeutic agents; assay type: cell-based, human; details: MT-CO1 knocked out via Mito-Flag and CRISPR-MT-CO1 plasmid

Row | Molecule | cytotoxicity of branched peptide alone (HeLa cells [1]) | cytotoxicity of branched peptide alone (U87MG cells) | mitochondrial localization of NBD-Mito-Flag (HeLa cells [3]) | other results
1 | NCCCC[C@H](NC(=O)[C@H](CC(=O)O)NC(=O)[C@H](CC(=O)O)NC(=O)[C@H](CC(=O)O)NC(=O)[C@H](CC(=O)O)NC(=O)[C@H](CCCCN)NC(=O)[C@H](Cc1ccc(O)cc1)NC(=O)[C@@H](N)CC(=O)O)C(=O)NCC(=O)NCCCC[C@@H](NC(=O)[C@@H](Cc1ccccc1)NC(=O)[C@@H](Cc1ccccc1)NC(=O)Cc1ccc2ccccc2c1)C(=O)NCCNc1ccc([N+](=O)[O-])c2nonc12 [D-1 ? FLAG] (H-DYKDDDDKG-X2) | little cytotoxicity | little cytotoxicity |  | 
2 | NCCCC[C@H](NC(=O)[C@H](CC(=O)O)NC(=O)[C@H](CC(=O)O)NC(=O)[C@H](CC(=O)O)NC(=O)[C@H](CC(=O)O)NC(=O)[C@H](CCCCN)NC(=O)[C@H](Cc1ccc(O)cc1)NC(=O)[C@@H](N)CC(=O)O)C(=O)NCC(=O)NCCCC[C@@H](NC(=O)[C@@H](Cc1ccccc1)NC(=O)[C@@H](Cc1ccccc1)NC(=O)Cc1ccc2ccccc2c1)C(=O)N[C@H](Cc1ccc(O)cc1)C(=O)O [D-2 ? FLAG] (H-DYKDDDDKG-X1) | minimal cytotoxicity | minimal cytotoxicity |  | cell viability (HS-5 cells): neither free GFP-TP53 plasmid nor the mixture of Mito-Flag and GFP-TP53 plasmid impairs the viability of HS-5 cells; cell viability (Saos-2 cell): innoxious; cell viability (HeLa cells [2]): hardly causes cell death
3 | N#CC(C#N)=NNc1ccc(OC(F)(F)F)cc1 [FCCP, p-trifluoromethoxy carbonylcyanide phenylhydrazone] |  |  | diminishes the mitochondria-specific localization | 
4 | NCCCC[C@H](NC(=O)[C@H](CC(=O)O)NC(=O)[C@H](CC(=O)O)NC(=O)[C@H](CC(=O)O)NC(=O)[C@H](CC(=O)O)NC(=O)[C@H](CCCCN)NC(=O)[C@H](Cc1ccc(O)cc1)NC(=O)[C@@H](N)CC(=O)O)C(=O)NCC(=O)NCCCC[C@H](NC(=O)[C@H](Cc1ccccc1)NC(=O)[C@H](Cc1ccccc1)NC(=O)Cc1ccc2ccccc2c1)C(=O)N[C@@H](Cc1ccc(O)cc1)C(=O)O [L-2 ? FLAG] (H-DYKDDDDKG-X3) | minimal cytotoxicity | minimal cytotoxicity |  | 
5 | CCN(CC)CCCC(C)Nc1ccnc2cc(Cl)ccc12 (stereo not drawn) [chloroquine] |  |  | significantly reduced mitochondrial localization | 
6 | CN(C)CCCN1c2ccccc2Sc2ccc(Cl)cc21 [chlorpromazine] |  |  |  | uptake of NBD-Mito-Flag (intracellular fluorescence) (HeLa cells [3]): significantly decreases the intracellular fluorescence
7 | N.N.[Cl][Pt][Cl] [cisplatin] |  |  |  | sensitivity of MT-CO1-KO cancer cells versus wild type (MT-CO1-KO cancer cells): more sensitive
8 | COC(=O)Nc1nc2ccc(C(=O)c3cccs3)cc2[nH]1 [nocodazole] |  |  | weakened mitochondrial fluorescence | 
9 | M-β-CD |  |  |  | uptake of NBD-Mito-Flag (intracellular fluorescence) (HeLa cells [3]): hardly affects the uptake
